The target of series [1] is DNA-PK phosphorylation at serine 2056 (Homo sapiens (Human), UniProt P78527). Kind of series: DNA-PK phosphorylation at serine 2056 (cellular), bleomycin-treated HCT116 cells, ELISA. The class given is cell-based. As to conditions: read-out: IC50 pDNA-PK. The method in brief: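 Chemiluminescent ELISA quantified DNA-PK Ser2056 phosphorylation relative to total DNA-PKcs in HCT116 cells. Cells received compounds together with 10 μM bleomycin for 6 h; DMSO served as blank.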
A general note: An ELISA detects its analyte on a solid surface through an enzyme-linked reagent.

The target in the next series is Kv11.1 (hERG) (Homo sapiens (Human), UniProt Q12809). The series can be described thus: Kv11.1 (hERG) ion channel activity (patch clamp assay), HEK293 cells transfected with hERG gene. For orientation: Block of hERG is tested as a sign of cardiac risk.
The target of a further series is DNA-PK (Homo sapiens (Human), UniProt P78527). Kind of series: DNA-PK assay (biochemical), flashplate 33P-ATP kinase assay. The method in brief: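 Reactions ran in streptavidin-coated flashplates and were halted by 200 mM EDTA, with a further 30 min at room temperature before saline washing.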
Where [2] appears, read: cellular DNA-PK phosphorylation at serine 2056, HCT116.
[3] abbreviates: read-out: Ki [Kv1.11 hERG], hERG patch clamp assay (cells without asterisk).
The mark [4] stands for this setting: cellular, HCT116 cells, 10 μM bleomycin, six hours.
The mark [5] stands for this setting: Ki [Kv1.11 hERG], patch clamp, HEK293 transfected with hERG gene.
[6] abbreviates: Ki [Kv1.11 hERG], hERG patch clamp assay (cells without asterisk).
[7] abbreviates: read-out: Ki [Kv1.11 hERG], patch clamp, HEK293 transfected with hERG gene.
Where [8] appears, read: read-out: Ki [Kv1.11 hERG], Table 5.

Like-named read-outs stand apart in the source and are kept apart here.

Chain of Kv11.1 (hERG) (Q12809 whole entry): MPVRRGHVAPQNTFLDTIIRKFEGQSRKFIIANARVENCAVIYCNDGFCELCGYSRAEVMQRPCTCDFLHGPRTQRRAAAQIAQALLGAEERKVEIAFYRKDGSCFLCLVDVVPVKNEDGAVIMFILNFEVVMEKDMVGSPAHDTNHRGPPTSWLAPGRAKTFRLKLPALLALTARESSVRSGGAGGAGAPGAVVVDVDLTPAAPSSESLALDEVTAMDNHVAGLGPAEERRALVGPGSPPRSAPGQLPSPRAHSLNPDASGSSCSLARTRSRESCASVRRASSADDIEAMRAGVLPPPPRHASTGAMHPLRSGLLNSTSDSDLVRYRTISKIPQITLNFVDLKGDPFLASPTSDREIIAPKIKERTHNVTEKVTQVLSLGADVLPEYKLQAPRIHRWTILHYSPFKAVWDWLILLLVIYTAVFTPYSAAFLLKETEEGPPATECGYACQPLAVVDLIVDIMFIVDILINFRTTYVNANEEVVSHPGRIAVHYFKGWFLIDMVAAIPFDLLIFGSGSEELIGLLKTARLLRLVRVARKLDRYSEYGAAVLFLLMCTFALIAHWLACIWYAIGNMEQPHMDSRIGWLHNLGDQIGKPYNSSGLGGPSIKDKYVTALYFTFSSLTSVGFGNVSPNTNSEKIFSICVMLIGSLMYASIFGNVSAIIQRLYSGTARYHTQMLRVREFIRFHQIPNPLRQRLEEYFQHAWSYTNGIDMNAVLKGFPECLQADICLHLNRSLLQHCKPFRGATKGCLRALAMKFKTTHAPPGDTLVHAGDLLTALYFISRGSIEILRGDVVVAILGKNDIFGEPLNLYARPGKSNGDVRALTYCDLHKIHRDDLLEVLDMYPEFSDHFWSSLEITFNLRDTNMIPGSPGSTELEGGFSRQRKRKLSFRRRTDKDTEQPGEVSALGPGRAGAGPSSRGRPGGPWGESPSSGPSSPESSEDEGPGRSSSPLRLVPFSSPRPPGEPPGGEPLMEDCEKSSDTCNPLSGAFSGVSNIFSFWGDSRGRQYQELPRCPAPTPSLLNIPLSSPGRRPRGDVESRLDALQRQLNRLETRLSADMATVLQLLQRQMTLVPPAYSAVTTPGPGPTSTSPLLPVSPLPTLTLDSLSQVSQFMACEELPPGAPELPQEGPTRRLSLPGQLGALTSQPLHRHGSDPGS

The term IC50 denotes the point on the concentration scale where inhibition reaches its midpoint. For orientation: Ki means a dissociation constant, usually derived from enzyme kinetics or from competition with a known ligand. Take `OC(c1cc(-c2ncnc3cc(N4CCOCC4)ccc23)ccc1Cl)c1ncnn2cccc12` (stereo not drawn) [Example 362, [2-Chloro-5-(7-morpholin-4-yl-quinazolin-4-yl)-phenyl]pyrrolo[2,1-f]-[1,2,4]triazin-4-yl-methanol]: the concentration for half-maximal inhibition (IC50) was in the range of 500 to 5000 nM in series [1] (setting [2]) and 3 to 7 nM against DNA-PK (biochemical DNA-PK assay). Further, on Kv11.1 (hERG) (setting [3]), the Ki is less than 10000 nM.
For `Cc1nc(C(O)c2cc(-c3ncnc4cc(N5CCOCC5)ccc34)cnc2F)sc1C` (stereo not drawn) [Example 205, (4,5-Dimethyl-thiazol-2-yl)-[2-fluoro-5-(7-morpholin-4-yl-quinazolin-4-yl)-pyridin-3-yl]-methanol], the IC50 lay within 10000 to 30000 nM in series [1] (Table 5, HCT116 cells) and 7 to 30 nM against DNA-PK (Table 5). The compound further had an inhibition constant Ki on Kv11.1 (hERG) (Ki [Kv1.11 hERG], Table 5) of 10000 to 15000 nM.
Consider `OC(c1cc(-c2ncnc3cc(N4CCOCC4)ccc23)ccc1Cl)c1ncnc2ccsc12` (stereo not drawn) [Example 89, [2-Chloro-5-(7-morpholin-4-yl-quinazolin-4-yl)-phenyl]thieno[3,2-d}-pyrimidin-4-ylmethanol], for which the 50% inhibitory concentration (IC50) is less than 500 nM in series [1] (setting [4]) and 3 to 7 nM on DNA-PK (enzymatic, 5 μM ATP). The Ki on Kv11.1 (hERG) (setting [5]) was in the range of 10000 to 15000 nM.
As for `COc1nccnc1C(C(N)=O)c1cc(-c2ncnc3cc(N4CCOCC4)cc(F)c23)c(F)cc1Cl` (stereo not drawn) [Example 261, 2-[2-Chloro-4-fluoro-5-(5-fluoro-7-morpholin-4-yl-quinazolin-4-yl)-phenyl]-2-(3-methoxy-pyrazin-2-yl)acetamide], the concentration for half-maximal inhibition (IC50) fell in the range of 500 to 5000 nM in series [1] (setting [2]) and 7 to 30 nM on DNA-PK (biochemical DNA-PK assay). For the same compound, the Ki on Kv11.1 (hERG) (setting [6]) fell in the range of 15000 to 25000 nM.
On to `OC(c1cc(-c2ncnc3cc(N4CCOCC4)ccc23)ccc1F)c1ncnc2ccoc12` (stereo not drawn) [Example 374, [2-Fluoro-5-(7-morpholin-4-yl-quinazolin-4-yl)-phenyl]furo[3,2-d}-pyrimidin-4-yl-methanol], for which the IC50 in series [1] (setting [2]) was 500 to 5000 nM; at DNA-PK (biochemical DNA-PK assay), less than 3 nM. Moreover, on Kv11.1 (hERG) (setting [6]), the inhibition constant (Ki) was in the range of 15000 to 25000 nM.
As to `NC(=O)C(c1cc(-c2ncnc3cc(N4CCOCC4)ccc23)c(F)cc1Cl)c1ncccc1Cl` (stereo not drawn) [Example 289, 2-[2-Chloro-4-fIuoro-5-(7-morpholin-4-yl-quinazolin-4-yl)-phenyl]-2-(3-chloro-pyridin-2-yl)-acetamide], the IC50 in series [1] (setting [2]) is 500 to 5000 nM; against DNA-PK (biochemical DNA-PK assay), less than 3 nM. The Ki at Kv11.1 (hERG) (setting [6]) was in the range of 15000 to 25000 nM.
For the compound `COc1nccnc1C(O)c1cc(-c2ncnc3cc(N4CCOCC4)ccc23)c(F)cc1F` (stereo not drawn) [Example 467, [2,4-Difluoro-5-(7-morpholin-4-yl-quinazolin-4-yl)-phenyl]-(3-methoxy-pyrazin-2-yl)-methanol], the concentration for half-maximal inhibition (IC50) was less than 500 nM in series [1] (setting [2]) and 3 to 7 nM on DNA-PK (biochemical DNA-PK assay). In addition, the Ki at Kv11.1 (hERG) (setting [3]) is greater than 25000 nM.
In the case of `O=c1ccc(C(O)c2ccc(F)c(-c3ncnc4cc(N5CCOCC5)ccc34)c2)n[nH]1` (stereo not drawn) [Example 76, 6-{[4-Fluoro-3-(7-morpholin-4-yl-quinazolin-4-yl)phenyl]-hydroxymethyl}-2H-pyridazin-3-one], the IC50 is 500 to 5000 nM in series [1] (setting [4]) and less than 3 nM against DNA-PK (enzymatic, 5 μM ATP). In addition, on Kv11.1 (hERG) (setting [7]), the inhibition constant Ki is greater than 25000 nM.
For the compound `OC(c1ccc(F)c(-c2ncnc3cc(N4CCOCC4)ccc23)c1)c1nc(Cl)cnc1Cl` (stereo not drawn) [Example 35, (3,6-Dichloro-pyrazin-2-yl)-[4-fluoro-3-(7-morpholin-4-yl-quinazolin-4-yl)phenyl]-methanol], the IC50 is less than 500 nM in series [1] (setting [4]) and less than 3 nM on DNA-PK (enzymatic, 5 μM ATP). Moreover, the Ki at Kv11.1 (hERG) (setting [5]) was 10000 to 15000 nM.
`Cc1nccnc1C(C(N)=O)c1ccc(F)c(-c2ncnc3cc(N4CCOCC4)ccc23)c1` (stereo not drawn) [Example 327, 2-[4-Fluoro-3-(7-morpholin-4-yl-quinazolin-4-yl)-phenyl]-2-{3-methyl-pyrazin-2-yl)-acetamide]: the values for the 50% inhibitory concentration (IC50) (in series [1] (setting [2]); on DNA-PK (biochemical DNA-PK assay)) were 10000 to 30000 nM and 7 to 30 nM, respectively. Besides, the inhibition constant (Ki) at Kv11.1 (hERG) (setting [3]) was greater than 25000 nM.
Regarding `Cn1cnc2c(C(O)c3cc(-c4ncnc5cc(N6CCOCC6)ccc45)ccc3F)ncnc21` (stereo not drawn) [Example 370, [2-Fluoro-5-(7-morpholin-4-yl-quinazolin-4-yl)-phenyl]-(9-methyl-9H-purin-6-yl)-methanol], the IC50 in series [1] (setting [2]) was in the range of 500 to 5000 nM; against DNA-PK (biochemical DNA-PK assay), 7 to 30 nM. In addition, the inhibitory constant (Ki) at Kv11.1 (hERG) (setting [3]) was greater than 25000 nM.
In the same order, the values of `O=c1ccc(C(O)c2ccc(F)c(-c3ncnc4cc(N5CCOCC5)ccc34)c2)n[nH]1` (stereo not drawn) [Example 367, 6-{[4-Fluoro-3-(7-morpholin-4-yl-quinazolin-4-yl)-phenyl]hydroxy-methyl}-2H-pyridazin-3-one] are 500 to 5000 nM, less than 3 nM and greater than 25000 nM.
Regarding `OC(c1ccc(F)c(-c2ncnc3cc(N4CCOCC4)ccc23)c1)c1nccs1` (stereo not drawn) [Example 211, [4-Fluoro-3-(7-morpholin-4-yl-quinazolin-4-yl)-phenyl]thiazol-2-ylmethanol], the concentration for half-maximal inhibition (IC50) in series [1] (setting [4]) lay within 500 to 5000 nM; at DNA-PK (enzymatic, 5 μM ATP) it was 3 to 7 nM. For the same compound, the inhibitory constant (Ki) at Kv11.1 (hERG) (setting [7]) was greater than 25000 nM.
`COc1ccc(C(O)c2cc(-c3nc(Cl)nc4cc(N5CCOCC5)ccc34)c(F)cc2Cl)nn1` (stereo not drawn) [Example 132, [2-Chloro-5-(2-chloro-7-morpholin-4-yl-quinazolin-4-yl)-4-fluorophenyl]-(6-methoxy-pyridazin-3-yl)-methanol]: the concentration for half-maximal inhibition (IC50) in series [1] (setting [4]) was 500 to 5000 nM; at DNA-PK (enzymatic, 5 μM ATP), 3 to 7 nM. In addition, on Kv11.1 (hERG) (setting [7]), the inhibition constant Ki is greater than 25000 nM.
In the same order, the values of `COc1ccnnc1C(O)c1cc(-c2ncnc3cc(N4CCOCC4)ccc23)c(F)cc1Cl` (stereo not drawn) [Example 3, [2-Chloro-4-fluoro-5-(7-morpholin-4-yl-quinazolin-4-yl)phenyl]-(4-methoxy-pyridazin-3-yl)methanol] are 500 to 5000 nM, 3 to 7 nM and greater than 25000 nM.
In the case of `Cn1cc(C(O)c2ccc(F)c(-c3ncnc4cc(N5CCOCC5)ccc34)c2)cn1` (stereo not drawn) [Example 191, [4-Fluoro-3-(7-morpholin-4-yl-quinazolin-4-yl)-phenyl]-(1-methyl-1H-pyrazol-4-yl)-methanol], the half-inhibitory concentration (IC50) is 10000 to 30000 nM in series [1] (Table 5, HCT116 cells) and less than 3 nM against DNA-PK (Table 5). Further, at Kv11.1 (hERG) (setting [8]), the Ki is greater than 25000 nM.
With `COCCOc1ccc(C(O)c2cc(-c3ncnc4cc(N5CCOCC5)ccc34)c(F)cc2Cl)nn1` (stereo not drawn) [Example 112, [2-Chloro-4-fluoro-5-(7-morpholin-4-yl-quinazolin-4-yl)-phenyl]-[6-(2-methoxyethoxy)-pyridazin-3-yl]-methanol], the IC50 in series [1] (setting [4]) is 500 to 5000 nM; against DNA-PK (enzymatic, 5 μM ATP) it was less than 3 nM. The compound also had an inhibition constant Ki on Kv11.1 (hERG) (setting [5]) of 15000 to 25000 nM.
As for `Cc1cnc(C(C(N)=O)c2cc(-c3ncnc4cc(N5CCOCC5)ccc34)c(F)cc2Cl)c(C)n1` (stereo not drawn) [Example 301, 2-[2-Chloro-4-fluoro-5-(7-morpholin-4-yl-quinazolin-4-yl)-phenyl]-2-(3,5-dimethyl-pyrazin-2-yl)acetamide], the IC50 in series [1] (setting [2]) lay in the range of 500 to 5000 nM; against DNA-PK (biochemical DNA-PK assay), 7 to 30 nM. The Ki at Kv11.1 (hERG) (setting [3]) is greater than 25000 nM.
Turning to `CC(O)c1csc(C(O)c2cc(-c3ncnc4cc(N5CCOCC5)ccc34)c(F)cc2Cl)n1` (stereo not drawn) [Example 201, 1-(2-{[2-Chloro-4-fluoro-5-(7-morpholin-4-yl-quinazolin-4-yl)-phenyl]hydroxy-methyl}thiazol-4-yl)-ethanol], the IC50 is 500 to 5000 nM in series [1] (Table 5, HCT116 cells) and 3 to 7 nM against DNA-PK (Table 5). Besides, the Ki at Kv11.1 (hERG) (Ki [Kv1.11 hERG], Table 5) lay within 15000 to 25000 nM.
Take `OC(c1cc(-c2ncnc3cc(N4CCOCC4)ccc23)c(F)cc1Cl)c1ncnc2ccoc12` (stereo not drawn) [Example 441, [2-Chloro-4-fluoro-5-(7-morpholin-4-yl-quinazolin-4-yl)-phenyl]furo[3,2-d}-pyrimidin-4-yl-methanol]: the figures for the IC50 (in series [1] (setting [2]); against DNA-PK (biochemical DNA-PK assay)) were less than 500 nM and less than 3 nM, respectively. The compound also yielded a Ki at Kv11.1 (hERG) (setting [6]) of 10000 to 15000 nM.
On to `Cc1nccnc1C(O)c1ccc(F)c(-c2ncnc3cc(N4CCOCC4)ccc23)c1` (stereo not drawn) [Example 78, [4-Fluoro-3-(7-morpholin-4-yl-quinazolin-4-yl)phenyl]-(3-methylpyrazin-2-yl)-methanol], for which the 50% inhibitory concentration (IC50) in series [1] (setting [4]) is less than 500 nM; against DNA-PK (enzymatic, 5 μM ATP) it was 3 to 7 nM. On Kv11.1 (hERG) (setting [5]), this compound registered an inhibitory constant (Ki) of 15000 to 25000 nM.
For the compound `OC(c1ccc(F)c(-c2ncnc3cc(N4CCOCC4)ccc23)c1)c1nccnc1C(F)(F)F` (stereo not drawn) [Example 476, [4-Fluoro-3-(7-morpholin-4-yl-quinazolin-4-yl)-phenyl]-(3-trifluoro-methylpyrazin-2-yl)-methanol], the IC50 in series [1] (setting [2]) was less than 500 nM; against DNA-PK (biochemical DNA-PK assay) it was 3 to 7 nM. For the same compound, the Ki at Kv11.1 (hERG) (setting [3]) is greater than 25000 nM.
As to `CC(O)(c1cncc(-c2ncnc3cc(N4CCOCC4)ccc23)c1)c1nccs1` (stereo not drawn) [Example 152, 1-[5-(7-Morpholin-4-ylquinazolin-4-yl)-pyridin-3-yl]-1-thiazol-2-ylethanol], the IC50 in series [1] (Table 5, HCT116 cells) was 10000 to 30000 nM; on DNA-PK (Table 5), 7 to 30 nM. Besides, at Kv11.1 (hERG) (setting [8]), the Ki is greater than 25000 nM.
Regarding `Cc1nccnc1C(O)c1cc(-c2ncnc3cc(N4CCOCC4)ccc23)ccc1Cl` (stereo not drawn) [Example 427, [2-Chloro-5-(7-morpholin-4-yl-quinazolin-4-yl)-phenyl]-(3-methyl-pyrazin-2-yl)-methanol], the IC50 in series [1] (setting [2]) is 500 to 5000 nM; against DNA-PK (biochemical DNA-PK assay), 7 to 30 nM. Moreover, the inhibition constant (Ki) on Kv11.1 (hERG) (setting [6]) lay in the range of 15000 to 25000 nM.
With `Cc1ccc(C(O)c2ccc(F)c(-c3ncnc4cc(N5CCOCC5)ccc34)c2)nn1` (stereo not drawn) [Example 70, [4-Fluoro-3-(7-morpholin-4-yl-quinazolin-4-yl)phenyl]-(6-methylpyridazin-3-yl)methanol], the concentration for half-maximal inhibition (IC50) in series [1] (setting [4]) fell in the range of 500 to 5000 nM; on DNA-PK (enzymatic, 5 μM ATP), 3 to 7 nM. Moreover, the inhibition constant (Ki) at Kv11.1 (hERG) (setting [7]) was greater than 25000 nM.
